Data taken from ChEMBL document CHEMBL4041528, “Natural NO inhibitors from the leaves of Callicarpa kwangtungensis: Structures, activities, and interactions with iNOS” (Bioorg Med Chem Lett, 2017).

Columns and labels:
[1] = system: BV-2; test: Inhibition of LPS-induced NO production in mouse BV2 cells after 20 hrs by Griess assay; format: functional, cell-based; conditions: BV-2, 20 h
[2] = system: BV-2; test: Cytotoxicity against mouse BV2 cells NO inhibitory IC50 by MTT assay; format: cell-based

Compound | IC50 [1] | Activity [2]
CC(C)[C@@]12C=C3[C@H](O)C[C@H]4[C@](C)(C(=O)O)CCC[C@]4(C)[C@]3(CC1)OO2 | > 81 µM | Non-Toxic
CC(C)[C@]12CC[C@]3(OO1)C(=CC[C@H]1[C@](C)(C(=O)O)CCC[C@@]13C)[C@@H]2O | 26.7 µM | Non-Toxic
CO[C@@H]1C[C@H]2[C@](C)(C(=O)O)CCC[C@]2(C)[C@]23CC[C@](C(C)C)(C=C12)OO3 | 23.7 µM | Non-Toxic
C=C1CC[C@H](O)[C@@]2(C)O[C@H]2C[C@@H]2[C@@H]1CC2(C)C | 42.6 µM | Non-Toxic
CC1(C)C[C@H](O)[C@]23CC[C@@H](O)[C@](C)(CC[C@@H]12)C3 | 62.2 µM | Non-Toxic
CC(C)[C@]12C=C3CC[C@H]4[C@](C)(C(=O)O)CCC[C@]4(C)[C@@]3(CC1)OO2 | 34.7 µM | Non-Toxic
CC(C)[C@@]12C=C3CC[C@H]4[C@](C)(C(=O)O)CCC[C@]4(C)[C@]3(CC1)OO2 | 52.4 µM | Non-Toxic
CC1(C)C[C@@H]2C(=O)CC[C@H]3O[C@]3(C)CC[C@H]21 [KOBUSONE] | > 81 µM | Non-Toxic

Further lines, with some results ahead:

IC50 [1] | Compound | Activity [2]
> 81 µM | CC(C)[C@]12CC[C@@]34O[C@@]3(CC[C@H]3[C@](C)(C(=O)O)CCC[C@@]34C)[C@H]1O2 | Non-Toxic
13.6 µM | C=C1CC[C@H](O)/C(C)=C\C[C@@H]2[C@@H]1CC2(C)C | Non-Toxic
25.5 µM | C=C(C)c1ccc2c(c1)CC[C@H]1[C@](C)(C(=O)O)CCC[C@]1(C)O2 | Non-Toxic
15.3 µM | C=C(C)c1ccc2c(c1)CC[C@H]1[C@](C)(CO)CCC[C@]21C | Non-Toxic
17.9 µM | CC(C)c1ccc2c(c1)[C@@H](O)C[C@H]1[C@](C)(C(=O)O)CCC[C@]21C | Non-Toxic
